Experimental data from patent US12202818B2, “Compounds and methods for CD73 modulation and indications therefor” (Opna Bio SA, priority 2020, dated 2025).
Blank lines part the entries; values can stand above or below the compound they belong to.

Key:
[1] = biological target: T1, Human CD73 (amino acid residues 27-549) (Homo sapiens, UniProt P21589); test: CD73 enzymatic assay (luciferase-based indirect assay, CellTiter-Glo); assay type: biochemical; conditions: 0.4 nM CD73, 150 μM AMP, 1 hour at room temperature
T1 construct: Human CD73 (amino acid residues 27-549); His tag (N); made in house; host or cells: E. coli
T1 sequence (P21589 27-549): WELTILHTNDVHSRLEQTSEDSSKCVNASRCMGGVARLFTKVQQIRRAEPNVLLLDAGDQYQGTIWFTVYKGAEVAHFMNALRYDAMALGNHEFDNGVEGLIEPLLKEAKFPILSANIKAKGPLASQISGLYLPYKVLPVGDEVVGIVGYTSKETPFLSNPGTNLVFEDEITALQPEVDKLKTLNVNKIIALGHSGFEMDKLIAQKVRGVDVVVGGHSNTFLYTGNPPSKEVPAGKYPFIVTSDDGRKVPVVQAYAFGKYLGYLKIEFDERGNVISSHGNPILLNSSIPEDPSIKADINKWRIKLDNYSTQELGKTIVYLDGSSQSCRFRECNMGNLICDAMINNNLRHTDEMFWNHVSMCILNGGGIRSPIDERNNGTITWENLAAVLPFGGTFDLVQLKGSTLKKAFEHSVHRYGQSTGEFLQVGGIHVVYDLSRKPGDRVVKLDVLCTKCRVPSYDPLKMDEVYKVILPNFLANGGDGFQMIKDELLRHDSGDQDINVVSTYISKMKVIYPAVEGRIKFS
Procedure: CD73 enzymatic activity was measured in a luciferase-based indirect assay using CellTiter-Glo® system from Promega. The luciferase reaction in the presence of ATP is inhibited by AMP, a primary substrate of CD73. Addition of CD73 enzyme to the reaction converts AMP to adenosine, and release the inhibition, producing a luminescent signal. Inhibition of CD73 leads to the decrease of this luminescent signal.
Human CD73 (amino acid residues 27-549) with N-Terminal His tag was purified in E. coli. All the assay components were prepared in 50 mM HEPEs buffer (pH 7.4) with 0.01% Tween-20. The CD73 enzymatic assay was performed using 0.4 nM CD73 and 150 μM AMP. 9.5 μL of CD73 protein and 9.5 μL of AMP were added to the wells of a 384 well plate containing lpL of various concentrations of test compound or DMSO vehicle and incubated for 1 hour at room temperature. 16 wells containing CD73, AMP and 5% DMSO served as high control. 16 wells containing AMP and 5% DMSO served as low control. Enzymatic reaction was stopped and AMP level was measured indirectly by adding 5 μL of CellTiter-Glo® 2.0 reagent and 5 μL of ATP with a final concentration of 1 μM. Following incubation of the plate at room temperature for 30 minutes, luminescent signal was read on a Tecan plate reader. The percentage inhibition at individual concentrations relative to high and low controls was calculated. The data were analyzed by using nonlinear regression to generate IC50 values.

human CD73 = biological target: T2, human CD73 (Homo sapiens, UniProt P21589); test: Inhibitor activity against CD73 in cell based assay (CD73 expressing CHO-K1 cells); conditions: CHO-K1 cells expressing human CD73, 150 μM AMP, 4 hours of incubation; read-out: CHO-K1 CELL_VARIANT: CD73 IC50
T2 construct: expressed in transfected cells
T2 sequence (P21589 27-549): T1 sequence (P21589 27-549)
Procedure: Determine Inhibitor Activity Against CD73 in Cell Based Assay
CD73 expressing CHO-K1 cell clones were generated upon stable transfection of a plasmid expressing human CD73 under the control of CMV promoter. Cells were selected in Ham's F-12K (Kaighn's) media supplemented with 10% fetal bovine serum and 1 mg/ml G418 at 37° C. in a humidified incubator supplied with 5% CO2. The assays were performed as follows. Cells were seeded in a 96 well plate in 50 μL of culture media at a density of 1×10^4 per well. Compound at a maximal concentration of 5 mM was serially diluted 1:3 in DMSO for a total of 8 point titration. A 2 μL aliquot of each dilution point was added to […] culture media and 25 µL was added to each well, providing 10 μM compound at the maximum concentration point. AMP was diluted in culture media and 25 μL was added to each well with a final concentration of 150 μM. 4 wells containing 0.2% DMSO treated cells and AMP served as high controls and 4 wells containing media only with 0.2% DMSO and AMP served as low controls. After 4 hours of incubation, 20 μL of the supernatant was transferred to a 384 well plate. AMP level in supernatant was measured indirectly by adding 5 μL of CellTiter-Glo® 2.0 reagent and 5 μL of ATP with a final concentration of 1 μM. Following incubation of plate at room temperature for 30 minutes, luminescent signal was read on a Tecan plate reader. The percentage inhibition at individual concentrations relative to high and low controls was calculated. The data were analyzed by using nonlinear regression to generate ICso values.

Structure (SMILES): Cc1noc(C)c1-c1cc(O[C@@H]2CCN(c3cnn(CCO)c(=O)c3Cl)C2)ncn1 [P-0178, (R)-4-chloro-5-(3-((6-(3,5-dimethylisoxazol-4-yl)pyrimidin-4-yl)oxy)pyrrolidin-1-yl)-2-(2-hydroxyethyl)pyridazin-3(2H)-one]
IC50 [1]: 0.001 to 10 µM
IC50 (human CD73): 0.001 to 10 µM

Structure (SMILES): Cc1nn(C)c(C)c1-c1cc(O[C@@H]2CCN(c3cn[nH]c(=O)c3Cl)C2)ncc1F [P-0171, (R)-4-chloro-5-(3-((5-fluoro-4-(1,3,5-trimethyl-1H-pyrazol-4-yl)pyridin-2-yl)oxy)pyrrolidin-1-yl)pyridazin-3(2H)-one]
IC50 [1]: 0.001 to 10 µM
IC50 (human CD73): 0.001 to 10 µM

Structure (SMILES): Cc1nn(C(CO)CI)c(C)c1-c1ccnc(O[C@@H]2CCN(c3cn[nH]c(=O)c3Cl)C2)c1 (stereo partly drawn) [P-0088, 4-chloro-5-((3R)-3-((4-(1-(1-hydroxy-3-iodopropan-2-yl)-3,5-dimethyl-1H-pyrazol-4-yl)pyridin-2-yl)oxy)pyrrolidin-1-yl)pyridazin-3(2H)-one]
IC50 [1]: 0.001 to 10 µM
IC50 (human CD73): 0.001 to 10 µM

Structure (SMILES): Cn1cncc1-c1cc(F)nc(O[C@@H]2CCN(c3cn[nH]c(=O)c3Cl)C2)c1 [P-0173, (R)-4-chloro-5-(3-((6-fluoro-4-(1-methyl-1H-imidazol-5-yl)pyridin-2-yl)oxy)pyrrolidin-1-yl)pyridazin-3(2H)-one]
IC50 [1]: 0.001 to 10 µM
IC50 (human CD73): 0.001 to 10 µM

Structure (SMILES): O=c1[nH]ncc(N2CC[C@@H](Oc3cc(-c4ccc(S(=O)(=O)N5CCCC5)cc4)ccn3)C2)c1Cl [P-0246, (R)-4-chloro-5-(3-((4-(4-(pyrrolidin-1-ylsulfonyl)phenyl)pyridin-2-yl)oxy)pyrrolidin-1-yl)pyridazin-3(2H)-one]
IC50 [1]: 0.001 to 10 µM
IC50 (human CD73): 0.001 to 10 µM

Structure (SMILES): Cc1nn(C)c(C)c1-c1ccnc(O[C@@H]2CCN(c3cnn(CCCO)c(=O)c3C#N)C2)c1 [P-0097, (R)-2-(3-hydroxypropyl)-3-oxo-5-(3-((4-(1,3,5-trimethyl-1H-pyrazol-4-yl)pyridin-2-yl)oxy)pyrrolidin-1-yl)-2,3-dihydropyridazine-4-carbonitrile]
IC50 [1]: 0.001 to 10 µM
IC50 (human CD73): 0.001 to 10 µM

Structure (SMILES): Cc1nn(CC2CCC2)c(C)c1-c1cc(F)nc(O[C@@H]2CCN(c3cn[nH]c(=O)c3Cl)C2)c1 [P-0183, (R)-4-chloro-5-(3-((4-(1-(cyclobutylmethyl)-3,5-dimethyl-1H-pyrazol-4-yl)-6-fluoropyridin-2-yl)oxy)pyrrolidin-1-yl)pyridazin-3(2H)-one]
IC50 [1]: 0.001 to 10 µM
IC50 (human CD73): 0.001 to 10 µM

Structure (SMILES): Cc1noc(C)c1-c1cc(O[C@H]2CN(c3cn[nH]c(=O)c3Cl)C[C@@H]2F)ncc1F [P-0134, 4-chloro-5-((3S,4S)-3-((4-(3,5-dimethylisoxazol-4-yl)-5-fluoropyridin-2-yl)oxy)-4-fluoropyrrolidin-1-yl)pyridazin-3(2H)-one]
IC50 [1]: 0.001 to 10 µM
IC50 (human CD73): 0.001 to 10 µM

Structure (SMILES): Cc1nn(CC(F)(F)F)c(C)c1-c1cc(F)nc(O[C@@H]2CCN(c3cn[nH]c(=O)c3Cl)C2)c1 [P-0167, (R)-4-chloro-5-(3-((4-(3,5-dimethyl-1-(2,2,2-trifluoroethyl)-1H-pyrazol-4-yl)-6-fluoropyridin-2-yl)oxy)pyrrolidin-1-yl)pyridazin-3(2H)-one]
IC50 [1]: 0.001 to 10 µM
IC50 (human CD73): 0.001 to 10 µM

The next lines start with the values.

IC50 [1]: 0.001 to 10 µM
IC50 (human CD73): 0.001 to 10 µM
Structure (SMILES): O=c1[nH]ncc(N2CC[C@@H](Oc3cc(-c4ccc(C(F)(F)F)cc4)ccn3)C2)c1Cl [P-0236, (R)-4-chloro-5-(3-((4-(4-(trifluoromethyl)phenyl)pyridin-2-yl)oxy)pyrrolidin-1-yl)pyridazin-3(2H)-one]

IC50 [1]: 0.001 to 10 µM
IC50 (human CD73): 0.001 to 10 µM
Structure (SMILES): O=c1[nH]ncc(N2CC[C@@H](Oc3cc(-c4ccc(S(=O)(=O)NC5CC5)cc4)c(F)cn3)C2)c1Cl [P-0238, (R)-4-(2-((1-(5-chloro-6-oxo-1,6-dihydropyridazin-4-yl)pyrrolidin-3-yl)oxy)-5-fluoropyridin-4-yl)-N-cyclopropylbenzenesulfonamide]

IC50 [1]: 0.001 to 10 µM
IC50 (human CD73): 0.001 to 10 µM
Structure (SMILES): Cc1noc(C)c1-c1cc(O[C@@H]2CCN(c3cnn(CCO)c(=O)c3Cl)C2)ncc1F [P-0146, (R)-4-chloro-5-(3-((4-(3,5-dimethylisoxazol-4-yl)-5-fluoropyridin-2-yl)oxy)pyrrolidin-1-yl)-2-(2-hydroxyethyl)pyridazin-3(2H)-one]

IC50 [1]: 0.001 to 10 µM
IC50 (human CD73): 0.001 to 10 µM
Structure (SMILES): O=C(NC1CCN(c2ccnc(O[C@@H]3CCN(c4cn[nH]c(=O)c4Cl)C3)c2)CC1)C1CC1 [P-0222, (R)-N-(1-(2-((1-(5-chloro-6-oxo-1,6-dihydropyridazin-4-yl)pyrrolidin-3-yl)oxy)pyridin-4-yl)piperidin-4-yl)cyclopropanecarboxamide]

IC50 [1]: 0.001 to 10 µM
IC50 (human CD73): 0.001 to 10 µM
Structure (SMILES): O=c1[nH]ncc(N2CC[C@@H](Oc3cc(-c4ccc(S(=O)(=O)NC5CC5)cc4)ccn3)C2)c1Cl [P-0247, (R)-4-(2-((1-(5-chloro-6-oxo-1,6-dihydropyridazin-4-yl)pyrrolidin-3-yl)oxy)pyridin-4-yl)-N-cyclopropylbenzenesulfonamide]

IC50 [1]: 0.001 to 10 µM
IC50 (human CD73): 0.001 to 10 µM
Structure (SMILES): Cc1c(-c2ccnc(O[C@@H]3CCN(c4cn[nH]c(=O)c4Cl)C3)c2)cnn1C [P-0209, (R)-4-chloro-5-(3-((4-(1,5-dimethyl-1H-pyrazol-4-yl)pyridin-2-yl)oxy)pyrrolidin-1-yl)pyridazin-3(2H)-one]

IC50 [1]: 0.001 to 10 µM
IC50 (human CD73): 0.001 to 10 µM
Structure (SMILES): O=c1[nH]ncc(N2CC[C@@H](Oc3cc(-c4ccc(NS(=O)(=O)C5CC5)cc4)ccn3)C2)c1Cl [P-0245, (R)-N-(4-(2-((1-(5-chloro-6-oxo-1,6-dihydropyridazin-4-yl)pyrrolidin-3-yl)oxy)pyridin-4-yl)phenyl)cyclopropanesulfon-amide]

IC50 [1]: 0.001 to 10 µM
IC50 (human CD73): 0.001 to 10 µM
Structure (SMILES): N#CC1CC=C(c2ccnc(O[C@@H]3CCN(c4cn[nH]c(=O)c4Cl)C3)c2)CC1 (stereo partly drawn) [P-0100, 4-(2-(((R)-1-(5-chloro-6-oxo-1,6-dihydropyridazin-4-yl)pyrrolidin-3-yl)oxy)pyridin-4-yl)cyclohex-3-ene-1-carbonitrile]

IC50 [1]: 0.001 to 10 µM
IC50 (human CD73): 0.001 to 10 µM
Structure (SMILES): CCn1nc(C)c(-c2ccnc(O[C@@H]3CCN(c4cn[nH]c(=O)c4Cl)C3)c2)c1C [P-0077, (R)-4-chloro-5-(3-((4-(1-ethyl-3,5-dimethyl-1H-pyrazol-4-yl)pyridin-2-yl)oxy)pyrrolidin-1-yl)pyridazin-3(2H)-one]

IC50 [1]: 0.001 to 10 µM
IC50 (human CD73): 0.001 to 10 µM
Structure (SMILES): Cc1nn(CC(C)(C)O)c(C)c1-c1cc(O[C@@H]2CCN(c3cnn(CCO)c(=O)c3Cl)C2)ncn1 [P-0014, (R)-4-chloro-5-(3-((6-(1-(2-hydroxy-2-methylpropyl)-3,5-dimethyl-1H-pyrazol-4-yl)pyrimidin-4-yl)oxy)pyrrolidin-1-yl)-2-(2-hydroxyethyl)pyridazin-3(2H)-one]

IC50 [1]: 0.001 to 10 µM
IC50 (human CD73): 0.001 to 10 µM
Structure (SMILES): CCCNS(=O)(=O)c1cc(F)c(-c2ccnc(O[C@@H]3CCN(c4cn[nH]c(=O)c4Cl)C3)c2)c(F)c1 [P-0208, (R)-4-(2-((1-(5-chloro-6-oxo-1,6-dihydropyridazin-4-yl)pyrrolidin-3-yl)oxy)pyridin-4-yl)-3,5-difluoro-N-propylbenzenesulfonamide]
